≈ marks a conversion by molar mass, not a printed value.
Conditions: buffer; pH 7.4; 200.0 µM

| Compound | solubility kinetic [µg/mL] |
| --- | --- |
| Cc1ccc2nc(SC(C)C(=O)NC3CCCC3)[nH]c2c1 (stereo not drawn) | > 45.5 |
| COc1ccc(/C=C/c2c([N+](=O)[O-])c(=O)n(C)c(=O)n2C)cc1 | 3.4 (≈ 10.7 µM) |
| CCOc1ccccc1N1CCN(C(=O)NC2CCCCC2)CC1 | > 49.7 |
| CN1C[C@@H]2C[C@@H](c3cccn3-c3ccccn3)N3CCC[C@@]23C1=O | > 48.4 |
| CC(C)(C)N(Cc1ccccc1)C(=O)COC(=O)C1CCCCC1 | 24.4 (≈ 73.6 µM) |
| Nc1c(C(=O)N2CCOCC2)sc2nc3c(cc12)CCCC3 | > 47.6 |
| CCCOc1cc(C)c(S(=O)(=O)NCc2cccs2)cc1C | 9.1 (≈ 26.8 µM) |
| COc1ccc(-c2csc(NC(=O)Cc3ccccc3)n2)cc1OC | 0.7 (≈ 1.97 µM) |
| O=S(=O)(Nc1ccc(O)c2ccccc12)c1cccs1 | 24.9 (≈ 81.5 µM) |
| Cc1ccc(O)c(NC(=O)c2cc([N+](=O)[O-])ccc2Cl)c1 | 8.5 (≈ 27.7 µM) |
| CC1(C)N=c2ccc([N+](=O)[O-])c(N)c2=[N+]1[O-] | 30 (≈ 135 µM) |
| CCSc1nc(O)cc(=O)n1CC | > 30 |
| CCOc1ccccc1NC(=O)CN1CCC(NC(=O)Nc2ccccc2)CC1 | 18.5 (≈ 46.7 µM) |
| Cn1cccc1CNC(=S)Nc1ccccc1F | > 39.5 |
| N#CCCN(Cc1ccccc1)S(=O)(=O)c1cccs1 | > 46 |
| CCS(=O)(=O)Nc1cccc(C(=O)O)c1 | 30.5 (≈ 133 µM) |
| C[N+](C)(C)CCOc1ccc([N+](=O)[O-])cc1.[Br-] | > 45.8 |
| CC(C)(C)c1ccc(C(=O)NCCCNC(=O)c2ccccn2)cc1 | > 50.9 |
| O=C(CSc1ccc2c(c1)OCCO2)Nc1cccnc1 | > 45.4 |
| CCCC(=O)N(Cc1cc(=O)[nH]c2ccccc12)c1ccccc1C | 41.1 (≈ 123 µM) |
| O=C(NC(=S)NCc1ccccc1)c1cccc([N+](=O)[O-])c1 | 2.2 (≈ 6.98 µM) |
| Cc1cc(C)c(C)c(S(=O)(=O)N2CCN(C(=O)c3cc(S(=O)(=O)N4CCOCC4)ccc3F)CC2)c1C | 12.7 (≈ 22.9 µM) |
| CC1(C)CC2CC(C)(CN2C(=O)COC(=O)c2cccc([N+](=O)[O-])c2)C1 (stereo not drawn) | > 54.1 |
| Cc1ccc(-n2c(C)c(C)c3c(NCCCO)ncnc32)cc1 | > 46.6 |

| Compound | solubility kinetic [µg/mL] |
| --- | --- |
| O=C(COc1ccc(-c2nnco2)cc1)N1CCOCC1 | > 43.4 |
| O=C(Nc1ccccc1N1CCOCC1)c1ccc2c(c1)OCCO2 | 5.6 (≈ 16.5 µM) |
| COc1ccc(C(=O)NC2CCCc3ccccc32)cc1 (stereo not drawn) | 6.5 (≈ 23.1 µM) |
| CCOc1ccc(N=CNc2ccc(OCC)cc2)cc1 | 33 (≈ 116 µM) |
| Cc1ccc(/C=C/C(=O)NCc2cccs2)c(C)c1 | < 0.6 |
| CC(=NCCCO)c1c(O)[nH]c(=O)[nH]c1=O | > 34.1 |
| c1csc(-c2noc(CN3CCOCC3)n2)c1 | 36.6 (≈ 146 µM) |
| CCn1c(NC(=O)/C=C/c2ccc(F)cc2)nc2ccccc21 | 3.5 (≈ 11.3 µM) |
| Cc1ccc(C2(O)CN3CCC2CC3)cc1.Cl (stereo not drawn) | > 38.1 |
| C=CCOc1ccc(/C=C/C(=O)OCC(=O)NC2CCCCCC2)cc1 | < 0.8 |
| CC(C)Cc1cc(C(=O)Nc2ccccc2)c2ccccc2n1 | 3.9 (≈ 12.8 µM) |
| O=S(=O)(Cc1ccccc1)N1CCN(c2ncccn2)CC1 | 2.3 (≈ 7.22 µM) |
| COc1ccccc1NC(=O)CCN1C(=O)c2ccccc2C1=O | > 48.7 |
| COc1ccc(OC)c(NC(=O)CCOc2cccc(C)c2)c1 | 23 (≈ 72.9 µM) |
| CC(=O)C1C(c2ccc([N+](=O)[O-])cc2)c2c(noc2C)CC1(C)O (stereo not drawn) | > 49.6 |
| CNC(=S)N1C2CCCC1CC(NC(=O)c1ccc(F)cc1)C2 (stereo not drawn) | 21.8 (≈ 65 µM) |
| Cc1ccc(Nc2nc(N)c3ccccc3n2)cc1C.Cl | 5.9 |
| Cc1ccc(NC(=O)N2CCCC2C(=O)NCC2CCCO2)cc1 (stereo not drawn) | > 49.7 |
| CSc1ccccc1C(=O)OCC(=O)Nc1cccnc1Cl | 15.6 (≈ 46.3 µM) |
| Cc1ccc(NC(=O)c2cnccn2)c(Br)c1 | 4.2 (≈ 14.4 µM) |
| CCOC(=O)c1c(C)n(Cc2ccccc2)c2ccc(O)cc12 | < 0.7 |
| CN1CCN(NC(=O)c2cccc(C(F)(F)F)c2)CC1 | > 43.1 |
| COc1ccc(C(=O)NCC(=O)OCC(=O)NC2CCCCCC2)cc1OC | > 58.9 |
| O=C(NCc1cccnc1)NC(=O)c1ccc(Cl)cc1 | 3.8 (≈ 13.1 µM) |

| Compound | solubility kinetic [µg/mL] |
| --- | --- |
| O=c1c2ccccc2ncn1-c1ccc([N+](=O)[O-])cc1[N+](=O)[O-] | 2.7 (≈ 8.65 µM) |
| Cc1cccc(NC(=O)NCc2cccnc2)c1C | 35.6 (≈ 139 µM) |
| CCOCCn1c2ccccc2c2nc3ccccc3nc21 | 4.1 (≈ 14.1 µM) |
| CCOC(=O)c1csc(NC(=O)C2=COCCO2)n1 | > 42.6 |
| COc1ccccc1C1CCN(C(=O)c2ccccc2)CC1 | 42.4 (≈ 144 µM) |
| O=S(=O)(NC1CCCCCCC1)c1ccccc1 | 30 (≈ 112 µM) |
| Cc1c(C(=O)OCC(=O)N2CCCC2)cccc1[N+](=O)[O-] | > 43.8 |
| CC(Nc1cccc(F)c1)C(=O)Nc1ccc(S(N)(=O)=O)cc1 (stereo not drawn) | > 50.6 |
| CCn1c(SCc2nc3ccccc3c(=O)[nH]2)nc2ccccc21 | 1.1 (≈ 3.27 µM) |
| CCOc1cc(/C=N/NC(=O)C2CCCC2)ccc1O | > 41.5 |
| CC1CCC(NC(=O)CN2C(=O)C3CC=CCC3C2=O)CC1 (stereo not drawn) | > 45.7 |
| O=C(COC(=O)CNC(=O)C1CCCCC1)NCc1ccc(Cl)cc1 | 49.5 (≈ 135 µM) |
| Cc1ccccc1NC(=O)c1ccc2nccnc2c1 | 37.3 (≈ 142 µM) |
| COc1ccc(C(C)=O)cc1Cn1nc(C)c([N+](=O)[O-])c1C | > 45.5 |
| CC(=O)Nc1cccc2c1C(=O)N(c1ccccc1OC(C)=O)C2=O | > 50.7 |
| COc1ccccc1N1C(=O)CSC1=NC(=O)c1ccccc1 | 3 (≈ 9.19 µM) |
| O=C(NCCCc1ccccc1)C(=O)c1c[nH]c2ccccc12 | 1.2 (≈ 3.92 µM) |
| CCOC(=O)Cc1cc(=O)[nH]c(/N=C(\N)Nc2ccc(C)c(C)c2)n1 | 2.1 (≈ 6.12 µM) |
| COc1ccc2c(c1)[nH]c1c(=O)n(Cc3ccncc3)cnc12 | 5.1 (≈ 16.6 µM) |
| O=C(Nc1ccon1)Nc1cc(Cl)ccc1Cl | 1.4 (≈ 5.15 µM) |
| Cn1c(Br)nc2c1c(=O)n(Cc1ccccc1)c(=O)n2C | 46.1 (≈ 132 µM) |
| NC(=O)c1ccc(N=Cc2c(O)ccc3ccccc23)cc1 | 10.3 (≈ 35.5 µM) |
| O=C1CSC(c2ccccc2)N1CCc1ccccc1 (stereo not drawn) | 29.6 (≈ 104 µM) |
| Cl.NCCOc1ccc(C23CC4CC(CC(C4)C2)C3)cc1 | > 46.2 |

| Compound | solubility kinetic [µg/mL] |
| --- | --- |
| CSc1nc2c(cc1C#N)C(=O)CC(C)(C)C2 | 10.3 (≈ 41.8 µM) |
| CC(=O)NC1C(=O)N(Cc2ccccc2)c2ccc(Br)cc21 (stereo not drawn) | 18 (≈ 50.1 µM) |
| CC1(C)CC(CC(=O)O)CC(C)(C)N1.Cl | > 35.4 |
| Cc1noc(C)c1S(=O)(=O)N(C)Cc1ccccc1 | 38.5 (≈ 137 µM) |
| Cc1cc(Cl)ccc1NC(=S)NCC(O)c1ccccc1 (stereo not drawn) | > 48.1 |
| COc1ccc(C)cc1NC(=O)NC1CCCCCCC1 | < 0.3 |
| O=C(CCc1ccccc1)N1CCN(c2ccc(F)cc2)CC1 | > 46.9 |
| O=C(NCc1ccccn1)C(=O)Nc1nc(-c2ccccc2)cs1 | 1.6 (≈ 4.73 µM) |
| COc1ccc2c(c1OC)C(=O)OC2Nc1nc2ccccc2s1 (stereo not drawn) | 50.4 (≈ 147 µM) |
| CC(C)NC(=O)CCCc1c[nH]c2ccccc12 | > 36.7 |
| COc1ccc2oc(=O)cc(CN3CCOCC3)c2c1 | 39.5 (≈ 143 µM) |
| COc1ccc(CCC(=O)NCCOc2ccccc2Cl)cc1 | > 50.1 |
| Cl.O=C(O)CC1NCCc2ccccc21 (stereo not drawn) | > 34.2 |
| CN(C(=O)c1ccnn1C)C1CCCN(Cc2ccccc2F)C1 (stereo not drawn) | > 49.6 |
| CC(=O)Nc1cc(C)c2nc(NC(C)=O)sc2c1 | 25.7 (≈ 97.6 µM) |
| O=C(NC(=S)Nc1ccccc1Br)C1CCCCC1 | 2.2 (≈ 6.45 µM) |
| CC(C(=O)OCC(=O)NC1CCCC1)N1C(=O)c2ccccc2C1=O (stereo not drawn) | 50 (≈ 145 µM) |
| O=[N+]([O-])C(C1CCS(=O)(=O)C1)C1CCS(=O)(=O)C1 (stereo not drawn) | 41.8 (≈ 141 µM) |
| COc1ccccc1NS(=O)(=O)c1cc(NC(=O)c2cc(F)c(F)c(F)c2F)ccc1N1CCOCC1 | 3.6 (≈ 6.67 µM) |
| Cc1ccc(N2C(=O)CCC2(C#N)c2ccccc2)cc1 (stereo not drawn) | > 41.5 |
| Cc1ccsc1CN(C)CC(=O)NCC(=O)Nc1ccc(F)c(F)c1F | 10.8 (≈ 28 µM) |
| COC(CNC(=O)CN1CCN(Cc2ccccc2F)C1=O)OC | > 50.9 |
| Nc1nc(NCCO)nc(NC2CCCCC2)c1[N+](=O)[O-] | 39.1 (≈ 132 µM) |
| Cc1ccc(C(=O)NCCNS(=O)(=O)c2ccccc2)cn1 | > 47.9 |

| Compound | solubility kinetic [µg/mL] |
| --- | --- |
| CN(C)c1nc(Nc2ccc(Cl)c(Cl)c2)nc(N(C)C)n1 | < 0.1 |
| COc1cccc(OCC(=O)O/N=C(\N)c2ccncc2)c1 | 39.9 (≈ 132 µM) |
| CCOc1ccc2oc(C(=O)Nc3nccs3)c(C)c2c1 | 2.2 (≈ 7.28 µM) |
| CC(C)(C)C(=O)Cn1ncc(N2CCOCC2)c(Cl)c1=O | > 47.1 |
| COc1ccc(OC)c(NC(=O)COC(=O)CC2CCCCC2)c1 | 19 (≈ 56.6 µM) |
| CC(=O)c1ccc(S(=O)(=O)Nc2ccc(Cl)c(S(=O)(=O)N3CCCC3)c2)cc1 | > 66.4 |
| CCOC(=O)C1CCCN(C(=O)COc2ccc(S(=O)(=O)N3CCOCC3)cc2)C1 (stereo not drawn) | > 66.1 |
| Cc1ccc(NC(=O)c2ccc3nsnc3c2)c(Cl)c1 | 0.5 (≈ 1.65 µM) |
| CCc1ccccc1NC(=O)C1CCCN(c2nccc(C)n2)C1 (stereo not drawn) | 3.4 (≈ 10.5 µM) |
| CN(CC(=O)Nc1ccc2c(c1)OCCO2)CC(=O)Nc1ccc(F)c(F)c1F | > 61.4 |
| CN(CCOc1ccc(F)cc1)Cc1ccccc1.O=C(O)C(=O)O | 34.6 |
| Cc1ccc(CN(Cc2ccco2)C(=S)NCC(=O)NC2CC2)cc1 | 47.2 (≈ 132 µM) |
| O=C(N/N=C/c1ccccc1)C(O)c1ccccc1 (stereo not drawn) | > 38.1 |
| O=C(CN1CCN(S(=O)(=O)c2ccc(Cl)cc2)CC1)N1CCCC1 | 48.7 (≈ 131 µM) |
| CN(C(=O)COC(=O)c1cn(C)c2ccccc12)C1CCCCC1 | > 49.3 |
| CN(CC(=O)NCCc1ccc(F)cc1)Cc1ccccc1 | 38.7 (≈ 129 µM) |
| CCOc1ccccc1C(=O)Nc1cccc2cccnc12 | < 0.3 |
| COc1ccc(NC(=O)N2CCCc3cc(C)ccc32)c(OC)c1 | 27.8 (≈ 85.2 µM) |
| COc1cc(OC)c(C(=O)NCc2cccnc2)cc1OC | 42.9 (≈ 142 µM) |
| CC(C)(C)NC(=O)NC(=O)CN1CCN(Cc2ccccc2)CC1 | 45.3 (≈ 136 µM) |
| O=C(O)CC1(CC(=O)N2CCC(C(=O)O)CC2)CCCC1 | 40.6 (≈ 137 µM) |
| Cc1cc(=O)oc2cc(OCCSCCN3CCCCC3)ccc12 | > 52.1 |

— PubChem BioAssay AID1996
